For this assay, the target named is T1, hCBS-FL wild type (293T-CBS WT) (Homo sapiens, UniProt P35520).
T1 construct: human CBS or hCSE full-length (CBS-FL or CSE) was subcloned into pGEX-KG, pcDNA3 or pCDH vector; expressed in transfected cells
T1 sequence (P35520 1-551): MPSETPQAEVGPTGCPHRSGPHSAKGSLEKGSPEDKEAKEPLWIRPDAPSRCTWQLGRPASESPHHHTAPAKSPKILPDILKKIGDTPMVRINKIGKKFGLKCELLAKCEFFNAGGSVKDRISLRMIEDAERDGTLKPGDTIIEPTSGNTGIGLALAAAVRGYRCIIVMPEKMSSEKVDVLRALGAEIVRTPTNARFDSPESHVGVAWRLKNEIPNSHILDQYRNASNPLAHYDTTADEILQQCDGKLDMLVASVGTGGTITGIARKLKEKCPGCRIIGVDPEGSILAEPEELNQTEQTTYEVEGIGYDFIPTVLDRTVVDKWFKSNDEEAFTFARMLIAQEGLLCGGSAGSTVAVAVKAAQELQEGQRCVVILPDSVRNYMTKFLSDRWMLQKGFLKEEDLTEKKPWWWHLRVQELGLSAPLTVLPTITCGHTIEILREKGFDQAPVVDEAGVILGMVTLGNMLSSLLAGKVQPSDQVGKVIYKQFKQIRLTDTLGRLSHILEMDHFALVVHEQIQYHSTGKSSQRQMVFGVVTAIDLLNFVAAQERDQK
Description: H2S in HEK293T cells stably expressing hCBS WT (AzMC probe). Type of assay: cell-based. The note with it: 8 h, 293T-CBS WT. On the procedure:
HEK293T cells were transiently transfected with empty vector (EV, i and ii), hCBS-FL (iii and iv) or hCSE (v and vi) plasmids, followed by incubation with DMSO (i–iii and v) or 10 μM CH004 (iv and vi) for 8 h before staining with 50 μM AzMC, a H2S-specific probe (“Materials and Methods” section). For larger fluorescent and bright-field images, please see Supplementary Figure 4. The expression levels of hCBS or hCSE in HEK293T cells after transient transfections were determined by western blotting using an anti-CBS antibody (3E1, 1:2000; Abnova) or anti-CSE antibody (1:500, GeneTex). The densities of protein bands for hCBS or hCSE in the blots were quantified with the ImageJ software (National Institutes of Health, Bethesda, MD, USA) and expressed as ratios of respective control (EV group). All immunoblots are representative of at least two independent experiments using GAPDH as the loading control. The fluorescent images of the H2S (blue) were accordingly quantified (“Materials and Methods” section) with ImageJ. […] The DMSO groups of the controls (CTR), which are expressing of hCBS or hCSE, were normalized to 100% and the levels of H2S in CH004-treated or EV group are shown as relative percentages. c, d CH004 dose-dependently suppresses the activity of hCBS WT without affecting the activity of CH004-insensitive mutant. HEK293T cells stably expressing EV (i and ii), hCBS-FL wild type (293T-CBS WT; iii–v) or CBS-FL mutant (293T-CBS Q222A, vi–viii) were treated with DMSO (i–iii and vi), 5 μM CH004 (iv, vii) or 10 μM CH004 (v, viii) for 8 h before staining with the AzMC. For larger fluorescent and bright-field images, please see Supplementary Figures 5–6. […] The DMSO groups of the controls (CTR), which are expressing of hCBS-FL wt or Q222A mutant, were normalized to 100% and the levels of H2S in CH004-treated or EV group are shown as relative percentages. A representative fluorescence image from three independent experiments is shown. Means ± SDS (n = 3). Statistical analyses were performed on the raw data for each group by one-way (b) or two-way (d) ANOVA with Bonferroni post-tests. ***p < 0.001. Bars, 50 μm
H2S levels in living cells were detected using a H2S-specific fluorescent probe according to a protocol described previously[31],[55]. To measure H2S in transiently transfected HEK293T cells, the cells were seeded on poly-D-Lys-coated coverslips (Thermo Scientific, Waltham, MA, USA) in 12-well plates at a density of ~ 1 × 10^5 cells per well, and hCBS or hCSE plasmids were transiently transfected by X-tremeGENE HP DNA Transfection Reagent according to the manufacturer’s protocol (Roche, Basel, Switzerland). […] After incubation with 50 μM AzMC at 37 °C for 30 min, the cells were washed 4 times with PBS, and the fluorescent images were recorded with excitation by 405 nm laser by using a A1Si (Nikon) confocal microscope. The intensity of the blue fluorescent signals, indicating the amount of H2S, was quantified by ImageJ software (NIH, Bethesda, ML). The H2S signal was then corrected for the background signal detected in HEK293T cells transiently or stably expressing of empty vector (HEK293T-EV) and normalized by the corresponding cell-occupying area and compared with the control (DMSO group, 100%). Similarly, the H2S signal in HepG2 cells was quantified by AzMC staining, corrected for the background signal outside the cells, normalized by the cell area and expressed as percentages of DMSO control (100%). […]

From paper PMC6158189, “A pharmacological probe identifies cystathionine β-synthase as a new negative regulator for ferroptosis” (Cell Death & Disease, 2018) come the findings set out here.

The structures appear in SMILES notation.

Turning to `Cn1nc(Cc2ccccc2)nc2c(=O)n(C)c(=O)nc1-2` [CH004, 3-benzyl-1,6-dimethylpyrimido[5,4-e][1,2,4]triazine-5,7(1H,6H)-dione], the “decrease in H2S” value (5 μM) was found to be 22% and the “decrease in H2S” value (10 μM) stood at 43%.
